Each structure is given as a SMILES string. A value given as a limit tells only on which side of the number the result lay.

This note sets out measurements from BindingDB's records for doi:10.1021/np9904410 (Virginia Polytechnic Institute and State University, 2000).

A short description of test [1]: Inhibition of topoisomerase 1 in Saccharomyces cerevisiae RS321N in glucose medium by microtiter plate assay.
Test [2] in a line: Inhibition of topoisomerase 1 in Saccharomyces cerevisiae RS321N in galactose medium by microtiter plate assay.

As to `COc1ccc(/C=C\c2cc(OC)c(OC)c(OC)c2)c(O)c1O` [combretastatins A-1], the 50% inhibitory concentration (IC50) in test [1] was 5.71 µM; in test [2], 4.81 µM.
For `COc1ccc(CCc2cc(OC)c(OC)c(OC)c2)c(O[C@H]2O[C@@H](CO)[C@H](O)[C@@H](O)[C@@H]2O)c1O`, the half-inhibitory concentration (IC50) in test [1] is greater than 201 µM; in test [2], 138 µM.
